# ChEMBL document CHEMBL4251700, “Novel Staphyloxanthin Inhibitors with Improved Potency against Multidrug Resistant Staphylococcus aureus” (ACS Med Chem Lett, 2018)
# Residue numbers refer to the chain shown, from its start. Calls of active or inactive are those of the source. No cut-off for these calls is given here.
# How the values were obtained:
# Trichophyton rubrum = experiment: Antifungal activity against Trichophyton rubrum after 7 days by broth microdilution method; type: functional, organism-based
# Staphylococcus aureus [1] = experiment: Antibacterial activity against linezolid-resistant Staphylococcus aureus NRS271 infected in BALB/c mouse assessed as reduction of bacterial burden in heart at 0.1 mg, ip bid for 3.5 days administered 6 hrs post bacterial infection measured 84 hrs post infection; type: functional; parameters: scale not given: the % may be the effect or the level left
# Staphylococcus aureus [2] = experiment: Antibacterial activity against vancomycin-intermediate Staphylococcus aureus Mu50 infected in BALB/c mouse assessed as reduction of bacterial burden in heart at 0.1 mg, ip bid for 3.5 days administered 6 hrs post bacterial infection measured 84 hrs post infection relative to control; type: functional; parameters: scale not given: the % may be the effect or the level left
# Staphylococcus aureus [3] = experiment: Growth inhibition of methicillin-resistant Staphylococcus aureus USA300 LAC at 0.2 mM incubated overnight measured at 30 mins interval; type: organism-based; settings: 0.5 h, 200 µM
# [4] = Solubility of the compound in water at 10 mg measured after 24 hrs by HPLC method; type: physicochemical
# [5] = target: T1, 4,4'-diapophytoene desaturase (4,4'-diaponeurosporene-forming) (Staphylococcus aureus (strain Newman), UniProt O07855); experiment: Inhibition of CrtN in linezolid-resistant Staphylococcus aureus NRS271 assessed as reduction in staphyloxanthin levels after 48 hrs by spectrophotometric method-based pigment inhibition assay
# T1 sequence (O07855 whole entry): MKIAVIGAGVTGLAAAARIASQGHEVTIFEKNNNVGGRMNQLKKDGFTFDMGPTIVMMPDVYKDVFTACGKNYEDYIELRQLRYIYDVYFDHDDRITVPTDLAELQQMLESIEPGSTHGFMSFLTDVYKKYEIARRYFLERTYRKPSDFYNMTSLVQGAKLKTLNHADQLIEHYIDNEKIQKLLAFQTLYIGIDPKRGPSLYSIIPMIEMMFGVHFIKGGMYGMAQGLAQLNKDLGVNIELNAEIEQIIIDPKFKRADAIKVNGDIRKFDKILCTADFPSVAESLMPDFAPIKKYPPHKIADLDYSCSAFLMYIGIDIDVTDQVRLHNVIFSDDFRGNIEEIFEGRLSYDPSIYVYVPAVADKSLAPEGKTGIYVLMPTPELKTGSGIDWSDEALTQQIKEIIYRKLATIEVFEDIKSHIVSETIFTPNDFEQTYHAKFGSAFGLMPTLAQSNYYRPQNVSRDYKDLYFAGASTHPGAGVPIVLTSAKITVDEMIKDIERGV
# [6] = target: T1, 4,4'-diapophytoene desaturase (4,4'-diaponeurosporene-forming); experiment: Inhibition of CrtN in Staphylococcus aureus Newman assessed as reduction in staphyloxanthin levels after 48 hrs by spectrophotometric method-based pigment inhibition assay; parameters: species or system Staphylococcus aureus subsp. aureus str. Newman
# Staphylococcus aureus [7] = experiment: Antibacterial activity against linezolid-resistant Staphylococcus aureus NRS271 infected in BALB/c mouse assessed as log reduction of colony forming units in liver at 0.4 mg, ip bid for 3.5 days administered 6 hrs post bacterial infection measured 84 hrs post infection; type: functional
# [8] = Cytotoxicity against human HepG2 cells after 72 hrs by CCK8 assay; type: cell-based
# [9] = tested on: Trichophyton mentagrophytes; experiment: Antifungal activity against Trichophyton mentagrophytes after 7 days; type: functional, organism-based
# Staphylococcus aureus [10] = experiment: Antibacterial activity against linezolid-resistant Staphylococcus aureus NRS271 infected in BALB/c mouse assessed as reduction of bacterial burden in heart at 0.4 mg, ip bid for 3.5 days administered 6 hrs post bacterial infection measured 84 hrs post infection; type: functional; parameters: scale not given: the % may be the effect or the level left
# [11] = Cytotoxicity against HEK293T cells after 72 hrs by CCK8 assay; type: cell-based, HEK-293T; settings: human
# Staphylococcus aureus [12] = experiment: Induction of sensitization to immune clearance towards Staphylococcus aureus Newman infected in human whole blood assessed as bacterial killing by measuring bacterial survival after 6 hrs by serial dilution method relative to control; type: functional
# Staphylococcus aureus [13] = experiment: Antibacterial activity against Staphylococcus aureus Newman infected in BALB/c mouse assessed as reduction of bacterial burden in heart at 0.4 mg, ip bid administered at 12 hrs prior to bacterial infection dosed at 12 intervals for 4.5 days relative to control; type: functional; parameters: scale not given: the % may be the effect or the level left
# [14] = target: T2, 4,4'-diapophytoene desaturase (4,4'-diaponeurosporene-forming) (Staphylococcus aureus (strain MW2), UniProt Q8NUQ6); experiment: Inhibition of CrtN in methicillin-resistant Staphylococcus aureus LAC USA300 assessed as reduction in staphyloxanthin levels after 48 hrs by spectrophotometric method-based pigment inhibition assay; parameters: species or system Staphylococcus aureus subsp. aureus USA300
# T2 sequence (Q8NUQ6 whole entry): T1 sequence (O07855 whole entry) with R500Q
# Staphylococcus aureus [15] = experiment: Antibacterial activity against linezolid-resistant Staphylococcus aureus NRS271 infected in BALB/c mouse assessed as reduction of bacterial burden in liver at 0.1 mg, ip bid administered at 12 hrs prior to bacterial infection dosed at 12 intervals for 4.5 days; type: functional, organism-based
# Staphylococcus aureus [16] = experiment: Antibacterial activity against vancomycin-intermediate Staphylococcus aureus Mu50 infected in BALB/c mouse assessed as reduction of bacterial burden in liver at 0.4 mg, ip bid for 3.5 days administered 6 hrs post bacterial infection measured 84 hrs post infection; type: functional, organism-based
# Staphylococcus aureus [17] = experiment: Antibacterial activity against Staphylococcus aureus Newman infected in BALB/c mouse assessed as reduction of bacterial burden in liver at 0.1 mg, ip bid for 3.5 days administered 6 hrs post bacterial infection measured 84 hrs post infection relative to control; parameters: scale not given: the % may be the effect or the level left
# [18] = target: T2, 4,4'-diapophytoene desaturase (4,4'-diaponeurosporene-forming); experiment: Inhibition of CrtN in methicillin-resistant Staphylococcus aureus USA400 MW2 assessed as reduction in staphyloxanthin levels after 48 hrs by spectrophotometric method-based pigment inhibition assay; parameters: species or system Staphylococcus aureus subsp. aureus MW2
# Staphylococcus aureus [19] = experiment: Antibacterial activity against vancomycin-intermediate Staphylococcus aureus Mu50 infected in BALB/c mouse assessed as reduction of bacterial burden in liver at 0.1 mg, ip bid for 3.5 days administered 6 hrs post bacterial infection measured 84 hrs post infection; type: functional, organism-based
# Nannizzia gypsea = experiment: Antifungal activity against Microsporum gypseum after 7 days by broth microdilution method; type: functional, organism-based
# [20] = target: T1, 4,4'-diapophytoene desaturase (4,4'-diaponeurosporene-forming); experiment: Inhibition of Staphylococcus aureus Newman […]-tagged CrtN expressed in Escherichia coli BL21(DE3))/pET28a::CrtN assessed as reduction in staphyloxanthin levels using diapophytoene as substrate after overnight incubation; parameters: species or system Staphylococcus aureus subsp. aureus str. Newman
# Staphylococcus aureus [21] = experiment: Antibacterial activity against Staphylococcus aureus Newman infected in BALB/c mouse assessed as reduction of bacterial burden in liver at 0.4 mg, ip bid administered at 12 hrs prior to bacterial infection dosed at 12 intervals for 4.5 days relative to control; type: functional; parameters: scale not given: the % may be the effect or the level left
compound,measurement,setting,value
CN(C/C=C/C=C/c1ccc(C(F)(F)F)cc1)Cc1ccc2c(c1)OCCO2.Cl,Activity,Trichophyton rubrum,inactive
same,Activity,Staphylococcus aureus [1],>90%
same,Activity,Staphylococcus aureus [2],99%
same,growth inhibition (GI),Staphylococcus aureus [3],Non-Toxic
same,solubility at 24 h,[4],7900 µg/mL
same,IC50,[5],0.6 nM
same,IC50,[6],2.2 nM
same,Activity,Staphylococcus aureus [7],<=0.75 log10CFU
same,CC50 at 72 h,[8],67800 nM
same,Activity,[9],inactive
same,Activity,Staphylococcus aureus [10],>90%
same,CC50 at 72 h,[11],50300 nM
same,Survival,Staphylococcus aureus [12],<0.5%
same,Activity,Staphylococcus aureus [13],89.01%
same,IC50,[14],5.5 nM
same,Activity,Staphylococcus aureus [15],Active
same,Activity,Staphylococcus aureus [16],Active
same,Activity,Staphylococcus aureus [17],99%
same,IC50,[18],6.5 nM
same,Activity,Staphylococcus aureus [19],Active
same,Activity,Nannizzia gypsea,inactive
same,IC50,[20],270 nM
same,Activity,Staphylococcus aureus [21],86.7%
